± gives the expanded uncertainty stated by the source.
Columns and labels:
[1] = for vapor or sublimation pressure: Liquid
[2] = refractive index (Na D-line) (dimensionless); settings: 298.1 K; 101.33 kPa; Liquid; Standard Abbe refractometry

O=C1C=CC(=O)O1 [maleic anhydride]
Normal melting temperature ([1]; Crystal, visual observation): 52.5 ± 0.5 °C

CCCCOC(=O)CCCCCCCCC(=O)OCCCC [dibutyl decanedioate]
refractive index [2]: 1.442 ± 0.0007 | vapor or sublimation pressure ([1]; 468.96 K): 0.666 ± 0.044 kPa | vapor or sublimation pressure ([1]; 473.96 K): 0.818 ± 0.05 kPa | vapor or sublimation pressure ([1]; 478.65 K): 1.036 ± 0.059 kPa | vapor or sublimation pressure ([1]; 485.91 K): 1.457 ± 0.078 kPa | vapor or sublimation pressure ([1]; 488.5 K): 1.515 ± 0.081 kPa | vapor or sublimation pressure ([1]; 490.22 K): 1.762 ± 0.093 kPa | vapor or sublimation pressure ([1]; 496.8 K): 2.286 ± 0.12 kPa | vapor or sublimation pressure ([1]; 500.18 K): 2.647 ± 0.14 kPa | vapor or sublimation pressure ([1]; 505.08 K): 3.149 ± 0.16 kPa | vapor or sublimation pressure ([1]; 510.7 K): 4.078 ± 0.21 kPa | vapor or sublimation pressure ([1]; 519.03 K): 5.29 ± 0.27 kPa | vapor or sublimation pressure ([1]; 525.3 K): 7.044 ± 0.35 kPa | vapor or sublimation pressure ([1]; 532.77 K): 9.161 ± 0.46 kPa
